Where two headings read alike, the source gives them in different places.
Legend:
[1] = system: Mycosphaerella graminicola; Anamorph: Septoria tritici; assay: Leaf blotch of wheat (SEPTTR) disease control on wheat seedlings; format: in vivo; conditions: Zymoseptoria tritici, High volume application, 100 ppm
In short: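 Wheat seedlings (Yuma, first leaf emerged) sprayed to run-off with compound in acetone/water with 110 ppm Triton X-100, or track-sprayed as EC with 0.1% Trycol 5941. Septoria tritici spores inoculated before or after treatment. Dew chambers, then 20 °C greenhouse. Percent disease control derived from severity (0–100%) relative to untreated plants.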

[2] = system: Puccinia triticina; Synonym: Puccinia recondite f. sp. tritici; assay: Wheat brown rust (PUCCRT) disease control on wheat seedlings; format: in vivo; conditions: Puccinia triticina, High volume application, 100 ppm
In short: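 Acetone solutions diluted in nine volumes of water with 110 ppm Triton X-100 sprayed to run-off on first-leaf Yuma wheat seedlings (track spray: EC with 0.1% Trycol 5941). Puccinia triticina spores inoculated before or after treatment; overnight dark dew at 22° C., 100% RH, then greenhouse at 24° C. for disease development.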

Phakopsora pachyrhizi = assay: Asian soybean rust (PHAKPA) disease control; format: in vivo; conditions: topical, high volume
Protocol: Technical grades of materials were dissolved in acetone, which were then mixed with nine volumes of water containing 0.011% Tween 20. The fungicide solutions were applied onto soybean seedlings using an automated booth sprayer to run-off. All sprayed plants were allowed to air dry prior to further handling.
Soybean plants (variety Williams 82) were grown in soil-less Metro mix, with one plant per pot. Two weeks old seedlings were used for testing. Plants were inoculated either 3 days prior to or 1 day after fungicide treatments. Plants were incubated for 24 h in a dark dew room at 22° C. and 100% RH then transferred to a growth room at 23° C. for disease to develop. Disease severity was assessed on the sprayed leaves.

[3] = system: Glomerella lagenarium; Anamorph: Colletotrichum lagenarium; assay: Cucumber anthracnose (COLLLA) disease control; format: in vivo; conditions: Colletotrichum orbiculare, 24 h, 1 Day Protectant, high volume, read-out: Disease Control COLLLA 1 DP
Protocol: Technical grades of materials were dissolved in acetone, which were then mixed with nine volumes of water containing 110 ppm Triton X-100. The fungicide solutions were applied onto wheat seedlings using an automated booth sprayer to run-off. All sprayed plants were allowed to air dry prior to further handling. All fungicides were evaluated using the aforementioned method for their activity vs. all target diseases. Wheat leaf blotch and brown rust activity were also evaluated using track spray applications, in which case the fungicides were formulated as EC formulations, containing 0.1% Trycol 5941 in the spray solutions. Cucumber seedlings (variety Bush Pickle) were propagated in soil-less Metro mix, with each pot having one plant, and used in the test when 12 to 14 days old. Test plants were inoculated with an aqueous spore suspension of Colletotrichum lagenarium 24 hr after fungicide treatments. After inoculation the plants were kept in a dew room at 22° C. with 100% relative humidity for 48 hr to permit spores to germinate and infect the leaf. The plants were then transferred to a growth room set at 22° C. for disease to develop. Fungicide formulation, application and disease assessment on the sprayed leaves followed the procedures as described in the Example A.

[4] = 24 h, 1 Day Protectant, read-out: SEPTTR 1DP disease control
[5] = 72 h, 3 Day Curative, read-out: SEPTTR 3DC disease control
[6] = 24 h, 1 Day Protectant, read-out: PUCCRT 1DP disease control
[7] = 72 h, 3 Day Curative, read-out: PUCCRT 3DC disease control
[8] = 24 h, 1 Day Protectant, read-out: Disease Control PHAKPA 1DP
[9] = 72 h, 3 Day Curative, read-out: Disease Control PHAKPA 3DC

Row | melting point [°C] | SMILES | pest or weed control at 100 ppm [1, 4] [%] | pest or weed control at 100 ppm [1, 5] [%] | pest or weed control at 100 ppm [2, 6] [%] | pest or weed control at 100 ppm [2, 7] [%] | pest or weed control at 25 ppm (Phakopsora pachyrhizi; [8]) [%] | pest or weed control at 25 ppm (Phakopsora pachyrhizi; [9]) [%] | pest or weed control at 100 ppm [3] [%]
1 | 246 to 248 | C[C@@H]1OC(=O)[C@@H](N)CCC[C@H](OC2CCCC2)[C@H]1OC1CCCC1.Cl |  |  |  |  |  |  | 
2 | 188 to 230 | CC(C)CO[C@H]1[C@H](C)OC(=O)[C@@H](N)CCC[C@@H]1OCC(C)C.Cl |  |  |  |  |  |  | 
3 |  | COc1ccnc(C(=O)N[C@H]2CCC[C@H](OCC(C)C)[C@@H](OCCCC(F)(F)F)[C@H](C)OC2=O)c1OCOC(C)=O [F44] | 80 to 100 | 80 to 100 | 80 to 100 | 80 to 100 | 80 to 100 |  | 
4 |  | COc1ccnc(C(=O)N[C@H]2CCC[C@H](OCC(C)C)[C@@H](OC(=O)C3CC3)[C@H](C)OC2=O)c1OCOC(C)=O [F46] | 80 to 100 | 80 to 100 | 80 to 100 | 80 to 100 | 80 to 100 |  | 
5 |  | CCCO[C@H]1[C@H](C)OC(=O)[C@@H](NC(=O)c2nccc(OC)c2OC(C)=O)CCC[C@@H]1OCC(C)C [F47] | 80 to 100 | 80 to 100 | 80 to 100 | 80 to 100 | < 0 |  | 
6 |  | CCCO[C@H]1[C@H](C)OC(=O)[C@@H](NC(=O)c2nccc(OC)c2OCOC(C)=O)CCC[C@@H]1Oc1ccccc1 [F95] | 80 to 100 | 80 to 100 | 80 to 100 | 80 to 100 | 80 to 100 | 80 to 100 | 
7 |  | COc1ccnc(C(=O)N[C@H]2CCC[C@H](OC3CCCC3)[C@@H](Oc3ccccc3)[C@H](C)OC2=O)c1OC(C)=O [F81] | 80 to 100 | 80 to 100 | 80 to 100 | 80 to 100 | 80 to 100 |  | 
8 | 231 to 235 | CC(C)CO[C@H]1CCC[C@H](N)C(=O)O[C@@H](C)[C@@H]1OC(=O)C1CC1.Cl |  |  |  |  |  |  | 
9 |  | CCCO[C@H]1[C@H](C)OC(=O)[C@@H](NC(=O)c2nccc(OC)c2OCOC(C)=O)CCC[C@@H]1OCC(C)C [F45] | 80 to 100 | 80 to 100 | 80 to 100 | 80 to 100 | 80 to 100 | 80 to 100 | 
10 |  | COc1ccnc(C(=O)N[C@H]2CCC[C@H](OC3CCCC3)[C@@H](Oc3ccccc3)[C@H](C)OC2=O)c1OCOC(=O)C(C)C [F79] | 80 to 100 | 80 to 100 | 80 to 100 | 80 to 100 | 80 to 100 |  | 
11 |  | COc1ccnc(C(=O)N[C@H]2CCC[C@H](OC3CCCC3)[C@@H](Oc3ccccc3)[C@H](C)OC2=O)c1OCOC(C)=O [F78] | 80 to 100 | 80 to 100 | 80 to 100 | 80 to 100 | 80 to 100 | 80 to 100 | 80 to 100
12 |  | COc1ccnc(C(=O)N[C@H]2CCC[C@H](OC3CCCC3)[C@@H](OC3CCCC3)[C@H](C)OC2=O)c1OC(C)=O [F77] | 80 to 100 | 80 to 100 | 80 to 100 | 80 to 100 | 80 to 100 |  | 
